# Measured values from paper PMC11440381, “Facile and scale-up syntheses of high-performance enzyme@meso-HOF biocatalysts” (Chemical Science, 2024).
# Target: T1, horseradish peroxidase (HRP) (Armoracia rusticana, UniProt P00433)
# T1 construct: gene PRXC1A; free or encapsulated in HOF-PTBA
# T1 sequence (P00433 31-338): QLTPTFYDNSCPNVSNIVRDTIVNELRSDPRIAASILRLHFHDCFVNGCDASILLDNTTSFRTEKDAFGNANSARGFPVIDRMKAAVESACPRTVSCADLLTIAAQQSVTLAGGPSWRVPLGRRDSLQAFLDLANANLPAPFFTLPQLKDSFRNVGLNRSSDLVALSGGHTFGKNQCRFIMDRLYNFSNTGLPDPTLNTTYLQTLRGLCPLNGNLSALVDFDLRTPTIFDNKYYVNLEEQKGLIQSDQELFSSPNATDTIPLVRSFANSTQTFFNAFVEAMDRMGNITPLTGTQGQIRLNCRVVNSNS
# Test: GOx-HRP cascade, UV-vis of oxidised TMB
# Type: biochemical
# Conditions: co-substrate H2O2 made by GOx from glucose; free GOx&HRP mixture and GOx&HRP@HOF-PTBA both tested
smiles,measurement,value
Cc1cc(-c2cc(C)c(N)c(C)c2)cc(C)c1N [TMB],"GOx-HRP cascade, UV-vis of oxidised TMB",H2O2 subsequently acting as a substrate for HRP to catalyze the oxidation of TMB
